Measured values as given in patent US12139481B2, “Compositions comprising macrocycle derivatives incorporating bridged macrocycles and methods of producing and using same” (Southwestern Oklahoma State University, priority 2015, dated 2024).
pIC50: −log10 of the molar value.

What was measured:
[1] = tested on: L. donovani promastigotes; assay: Antileishmanial Alamar Blue assay on promastigotes; assay type: cell-based, Leishmania donovani; conditions: for X more potent than Pentamidine: L. donovani, ratio of molar IC50 to Pentamidine; for L. donovani IC50 / pIC50: promastigotes, 48 hours, Alamar Blue; for pIC50: read-out: L. donavani IC50
Procedure, shortened: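 Alamar Blue fluorescence (544/590 nm) quantified growth after 48 hours at 26° C of compound-treated promastigotes. Parasites were seeded at 5×10^5/mL in RPMI 1640 plus 10% FCS; drug range 50-3.1 μg/mL, and IC50 derived by plotting percent growth against test concentration.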

[2] = tested on: Plasmodium falciparum D6 clone (Sierra Leon, chloroquine-sensitive); assay: In vitro antimalarial assay, chloroquine-sensitive D6 clone; assay type: cell-based; conditions: D6 clone; for pIC50: converted with molecular weight, read-out: P. falciparum D6 IC50; for X more potent than chloroquine: molar IC50 ratio versus chloroquine
Procedure, shortened: (§1)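 Parasites grown in type A human RBCs; assay run on infected cell suspension at 2% parasitemia and 2% hematocrit, in duplicate at several concentrations. IC50 taken from dose curves, per the Makler method, with DMSO as vehicle; Vero cytotoxicity run in parallel to derive a selectivity index.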

[3] = tested on: Plasmodium falciparum W2 clone (Indochina, chloroquine-resistant); assay: In vitro antimalarial assay, chloroquine-resistant W2 clone; assay type: cell-based; conditions: W2 clone; for pIC50: converted with molecular weight, read-out: P. falciparum W2 IC50; for X more potent than chloroquine: molar IC50 ratio versus chloroquine
Procedure, shortened: as §1

[4] = tested on: Staphylococcus aureus ATCC 29213; assay: Antibacterial broth dilution assay against S. aureus (modified CLSI); assay type: cell-based; conditions: for S. aureus IC50 / pIC50: in vitro; for pIC50: converted with molecular weight; for X more potent than ciprofloxacen: molar IC50 ratio versus ciprofloxacen
Procedure, shortened: (§2)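 Growth read by optical density at 530 nm, duplicate wells, 1% final DMSO. Staphylococcus spp.: Mueller-Hinton pH 7.3, 5.0×10^5 CFU/ml, 35 °C for 16-20 h; Candida spp.: RPMI/dextrose/glutamine/MOPS pH 6.0, 1.5×10^3 CFU/ml, 35 °C for 46-50 h. Reported values are 50% inhibition versus controls, no-growth MIC, and killing MFC/MBC.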

[5] = tested on: methicillin-resistant S. aureus ATCC 33591 (MRS); assay: Antibacterial broth dilution assay against MRSA (modified CLSI); assay type: cell-based, Staphylococcus aureus; conditions: for MRSa IC50 / pIC50: in vitro; for pIC50: converted with molecular weight; for X more potent than ciprofloxacen: molar IC50 ratio versus ciprofloxacen
Method: General Experimental Procedures. All organisms were obtained from the American Type Culture Collection (Manassas, VA) and include the fungi Candida albicans ATCC 90028, C. glabrata ATCC 90030, C. krusei ATCC 6258, and Cryptococcus neoformans ATCC 90113, and the bacteria Staphylococcus aureus ATCC 29213 and methicillin-resistant S. aureus ATCC 33591 (MRS). All organisms were tested using modified versions of the CLSI (formerly NCCLS) methods. For all organisms, optical density was used to monitor growth (NCCLS, Reference Method for Broth Dilution Antifungal Susceptibility Testing of Yeasts; Approved Standard M27-A2. National Committee on Clinical Laboratory Standards, 2002 22 (15); and NCCLS, Methods for Dilution Antimicrobial Susceptibility Tests for Bacteria that Grow Aerobically; Approved Standard, Seventh Edition M7-A7. National Committee on Clinical Laboratory Standards, 2006. 26(2)).
Samples (dissolved in DMSO) were serially-diluted in 20% DMSO/saline and transferred (10 μL) in duplicate to 96 well flat bottom microplates. Inocula were prepared by correcting the OD630 of microbe suspensions in incubation broth [RPMI 1640/0.2% dextrose/0.03% glutamine/MOPS @ pH 6.0 (Cellgro) for Candida spp., Sabouraud Dextrose for C. neoformans, and cation-adjusted Mueller-Hinton (Difco) @ pH 7.3 for Staphylococcus spp. to afford an assay volume of […] and final target inocula of: Candida spp. and C. neoformans: 1.5×10^3, and Staphylococcus spp.: 5.0×10^5 CFU/ml. Final sample test concentrations were 1/100th the DMSO stock concentration. […] All organisms were read at either 530 nm using the Biotek Powerwave XS plate reader (Bio-Tek Instruments, Vermont) prior to and after incubation: Candida spp. at 35° C. for 46-50 h, Staphylococcus spp. at 35° C. for 16-20 h, and C. neoformans at 35° C. for 70-74 h. IC50s (concentrations that afford 50% inhibition relative to controls) were calculated using XLfit 4.2 software (IDBS, Alameda, CA) using fit model 201. The MIC is defined as the lowest test concentration that allows no detectable growth. Minimum fungicidal or bactericidal concentrations were determined by removing 5 μl from each clear (or blue) well, transferring to fresh media, and incubating as previously mentioned. The MFC/MBC is defined as the lowest test concentration that kills the organism (allows no growth).
Primary Analysis. Samples were tested in duplicate at one test concentration (50 μg/mL), and percent inhibitions were calculated relative to blank and growth controls. Samples showing 50% inhibition in at least one test organism were selected for dose response (Secondary) studies.
Secondary Analysis. Extracts from the Primary Assay, and first-run pure compounds and column fractions were tested in duplicate at 3 test concentrations (5-fold dilutions). Samples dissolved to 20 mg/mL in DMSO were tested at 200, 40, and 8 μg/mL. Samples dissolved to 2 mg/mL in DMSO were tested at 20, 4, and 0.8 μg/mL.

[6] = tested on: S. mansoni newly transformed schistosomula (NTS); assay: In vitro testing on Schistosoma mansoni newly transformed schistosomula (NTS), viability score; assay type: cell-based; conditions: for IC50: NTS, 72 hours post-incubation
Procedure, shortened: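 Mechanically transformed S. mansoni (Liberian strain) NTS, cultured overnight, exposed at 100 per well to compound (from 10 mM DMSO stock; ≤1% DMSO controls) at 37 °C, 5% CO2 for 72 h. Viability scored microscopically from 3 (normal activity, intact tegument) to 0 (dead, granulated).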

[7] = tested on: S. mansoni adult worms; assay: In vitro tests on Schistosoma mansoni adult worms, viability score; assay type: cell-based
Method: All assays were prepared in compliance with the laboratory SOP described herein above. Female NMRI mice (age 3 weeks, weight ca. 14 g) were purchased from Charles River (Sulzfeld) or Harlan Laboratories (Blackthorn, United Kingdom). The animals were allowed to adapt for 1 week under controlled conditions (22° C., 50% humidity, 12 hours light, and free access to water and rodent diet) before experimental handling. To obtain adult schistosomes, NMRI mice were infected subcutaneously with 80 to 100 cercariae. After 7 to 8 weeks, the mice were euthanized with CO2, and the worms were collected from the hepatic portal and mesenteric veins. Two pairs of adult worms were placed in each well of a 24-well plate with 2 ml culture medium and the test compound. […] Worms were kept in an incubator at 37° C. and 5% CO2 for up to 72 hours. After 72 hours, worm condition was microscopically evaluated using a scale from 3 (normal activity and no tegument alteration) to 0 (dead, completely granulated). Active compounds progressed into IC50 determination. […] For the in vitro drug sensitivity assays, all viability scores were averaged across replicates and normalized to the average viability scores of the control wells (Microsoft Office Excel 2010). […]

[8] = tested on: Cryptococcus neoformans ATCC 90113; assay: Antimicrobial microdilution assay against Cryptococcus neoformans (modified CLSI/NCCLS, optical density); assay type: cell-based; conditions: for X more potent than Amphotericin B: C. neoformans, ratio of molar IC50 to Amphotericin B
Procedure, shortened: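 Fungicidal endpoint taken by subculturing 5 μL from each clear well onto agar, MFC being the lowest concentration with no regrowth. Duplicate wells of serially diluted compound (20% DMSO/saline) in RPMI pH 6.0, read at 630 nm pre- and post-incubation, under modified CLSI methods. IC50 means 50% growth inhibition against controls.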

[9] = tested on: C. glabrata ATCC 90030; assay: Antifungal broth dilution assay against C. glabrata (modified CLSI); assay type: cell-based, Candida glabrata; conditions: for C. glabrata IC50 / pIC50: in vitro; for pIC50: converted with molecular weight; for X more potent than Amphotericin B: molar IC50 ratio versus amphotericin B
Procedure, shortened: as §2

[10] = in vitro, C. neoformans ATCC 90113

| Compound | X more potent than Pentamidine [1] | L. donovani IC50 [1] [µg/mL] | P. falciparum D6 IC50 [2] [µg/mL] | pIC50 [2] | X more potent than chloroquine [2] | P. falciparum W2 IC50 [3] [µg/mL] | pIC50 [3] | X more potent than chloroquine [3] | S. aureus IC50 [4] [µg/mL] | pIC50 [4] | X more potent than ciprofloxacen [4] | MRSa IC50 [5] [µg/mL] | pIC50 [5] | X more potent than ciprofloxacen [5] | Effect at 72 h (%) ([6]; NTS S. mansoni, 33 μM) | further results |
| --- | --- | --- | --- | --- | --- | --- | --- | --- | --- | --- | --- | --- | --- | --- | --- | --- |
| [Cl-].[Cl-].[Mn+2].c1ccc(CN2CCCN3CCN(CCCN(Cc4ccccc4)CC3)CC2)cc1 [NS06, Mn(Bn2Bcyclam)Cl2] | 0.13 | 21.99 | 0.0838 | 6.80 | 0.23 | 0.0674 | 6.90 | 5.36 | 2.310 | 5.36 | 0.06 | 1.510 | 5.55 | 0.07 | 81.08 | pIC50 [1]: 4.38 |
| CN1CCCN2CCN(CCCN(Cc3ccccc3)CC2)CC1.[Cl-].[Cl-].[Fe+2] [NS12] | – | – | 0.1371 | 6.52 | 0.12 | 0.1164 | 6.59 | 2.67 | – | – | – | – | – | – | 100.00 | Effect at 72 h (%) ([6]; NTS S. mansoni at 10 μM): 100.00%; IC50 [6]: 6.69 µM; Effect at 72 h (%) ([7]; adult S. mansoni at 10 μM, 72 h): 2.08% |
| CC(=O)[O-].CC(=O)[O-].CN1CCCN2CCN(CCCN(Cc3cccc(CN4CCCN5CCN(C)CCCN(CC5)CC4)c3)CC2)CC1.F[P-](F)(F)(F)(F)F.F[P-](F)(F)(F)(F)F.[Zn+2].[Zn+2] [RM51, [Zn2(m-CB-Cyclams)(OAc)2][PF6]2] | 0.30 | 19.82 | – | – | – | – | – | – | 6.17 | – | 0.05 | 3.190 | – | 0.07 | 0.00 | X more potent than Amphotericin B [8]: 0.14; C. neoformans IC50 [8, 10]: 1.850 µg/mL |
| CN1CCCN2CCN(CCCN(Cc3ccc(CN4CCCN5CCN(C)CCCN(CC5)CC4)cc3)CC2)CC1.[Cl-].[Cl-].[Cl-].[Cl-].[Mn+2].[Mn+2] [JGL16A] | – | – | 0.7989 | 6.02 | 0.04 | 0.8002 | 6.02 | 0.71 | 8.090 | 5.01 | 0.03 | 7.770 | 5.03 | 0.02 | 5.41 | C. glabrata IC50 [9]: 18.600 µg/mL; pIC50 [9]: 4.65; X more potent than Amphotericin B [9]: 0.06 |
| CC(=O)[O-].CC(=O)[O-].CN1CCCN2CCN(CCCN(Cc3cccc(CN4CCCN5CCN(C)CCCN(CC5)CC4)c3)CC2)CC1.F[P-](F)(F)(F)(F)F.F[P-](F)(F)(F)(F)F.[Ni+2].[Ni+2] [CDG009, [Ni2(m-CB-Cyclams)(OAc)2][PF6]2] | – | – | – | – | – | – | – | – | 6.27 | 5.25 | 0.05 | 5.410 | 5.31 | 0.04 | 0.00 | X more potent than Amphotericin B [8]: 0.07; C. neoformans IC50 [8, 10]: 3.530 µg/mL; pIC50 ([8]; in vitro, C. neoformans ATCC 90113, read-out: C. neoformans IC50 (mol/L)): 5.50; C. glabrata IC50 [9]: 5.150 µg/mL; pIC50 [9]: 5.33; X more potent than Amphotericin B [9]: 0.31 |
| O=C(C1CCCCC1)N1CC(=O)N2CCc3ccccc3C2C1 (stereo not shown) [Praziquantel, reference compound] | – | – | – | – | – | – | – | – | – | – | – | – | – | – | – | IC50 ([6]; Schistosoma mansoni): 2.2 µM; IC50 ([7]; Schistosoma mansoni, adult worms, 72 hours post-exposure, read-out: IC50 [μM] Adults): 0.1 µM |
| [Cl-].[Cl-].[Mn+2].c1ccc(CN2CCN3CCN(CC2)CCN(Cc2ccccc2)CC3)cc1 [NS29, Mn(Bn2Bcyclen)Cl2] | 0.35 | 7.70 | 0.1337 | 6.58 | 0.14 | 0.2747 | 6.26 | 1.25 | 5.880 | 4.93 | 0.02 | 5.750 | 4.94 | 0.02 | 43.24 | pIC50 [1]: 4.82 |
